# From US6887897B2, “Calcium glutarate supplement and phosphorus binder” (Mission Pharmacal Company, priority 2001, dated 2005)
# What was measured:
# [1] = in-vitro test of ability of calcium glutarate to bind with phosphates (free calcium in filtrate by atomic absorption spectrometry); conditions: filtered through 0.45-μm nylon filter
# Experimental: (§1) The following in-vitro tests were conducted to test the solubility and ability of calcium glutarate to bind with phosphates. The tests included analysis for monobasic, Ca(Na2PO4)2, dibasic, CaNaPO4, and tribasic, Ca(PO4)2 binding. The three examples are as follows.
# (§2) An aqueous solution of calcium glutarate was mixed with a twice over molar solution of sodium phosphate. A suspension formed which was filtered by a vacuum through a 0.45-μm nylon filter. The resulting filtrate was assayed for free calcium by atomic absorption spectrometry. The percent of calcium recovered in solution was 0.1%.
# as §2, with “mixed with an equi-molar solution of” for “mixed with a twice over molar solution of”, “filtered by vacuum through” for “filtered by a vacuum through”
# An aqueous solution of calcium glutarate was mixed with a two-thirds molar solution of sodium phosphate. A suspension formed which was filtered by vacuum through a 0.45-μm nylon filter. The resulting filtrate was assayed for free calcium by atomic absorption spectrometry. The percent of calcium, recovered in solution was 4.5%.
# [2] = aqueous solubility of calcium salts; format: physicochemical
# Experimental: as §1
structure (smiles),measurement,setting,value
O=C([O-])CCCC(=O)[O-].[Ca+2] [calcium glutarate],percent of calcium recovered in solution,[1]; mixed with a twice over molar solution of sodium phosphate,0.1%
same,percent of calcium recovered in solution,[1]; mixed with a two-thirds molar solution of sodium phosphate,4.5%
same,percent of calcium recovered in solution,[1]; mixed with an equi-molar solution of sodium phosphate,0.1%
same,solubility,[2],about 5.2 gm per 100 cc
